From the NIST ThermoML archive (doi:10.1021/acs.jced.5b00251)
± gives the expanded uncertainty stated by the source.

Experiment: refractive index (other wavelength) (dimensionless); xn = mol fraction of the nth substance listed
Settings: 101 kPa, Liquid, Standard Abbe refractometry

CC(C)Cc1ccccc1 [(2-methylpropyl)benzene] + CCCCCCCCCCCC
refractive index
Settings	x1 = 0.1014	x1 = 0.2024	x1 = 0.3032	x1 = 0.4036	x1 = 0.5038	x1 = 0.6036	x1 = 0.7032	x1 = 0.8024	x1 = 0.9014
293.15 K, Wavelength=436.1 nm	1.43714 ± 0.00073	1.44344 ± 0.00074	1.45015 ± 0.00075	1.45682 ± 0.00076	1.46405 ± 0.00077	1.47144 ± 0.00077	1.47917 ± 0.00076	1.48711 ± 0.00079	1.49556 ± 0.0008
293.15 K, Wavelength=513.9 nm	1.4307 ± 0.00084	1.4365 ± 0.00082	1.44273 ± 0.00082	1.44889 ± 0.00083	1.45559 ± 0.00086	1.46247 ± 0.00086	1.46959 ± 0.00086	1.47693 ± 0.00089	1.48487 ± 0.00099
293.15 K, Wavelength=589.3 nm	1.42708 ± 0.00074	1.4326 ± 0.00076	1.43856 ± 0.00075	1.44443 ± 0.00076	1.45083 ± 0.00078	1.45746 ± 0.00077	1.46421 ± 0.00077	1.47122 ± 0.00079	1.47869 ± 0.00083
293.15 K, Wavelength=633.2 nm	1.42554 ± 0.00075	1.43094 ± 0.00074	1.4368 ± 0.00075	1.44255 ± 0.00077	1.44884 ± 0.00077	1.45524 ± 0.00075	1.46196 ± 0.00074	1.46884 ± 0.00076	1.47617 ± 0.00076
293.15 K, Wavelength=657.2 nm	1.42541 ± 0.00079	1.43084 ± 0.00073	1.43659 ± 0.00076	1.44269 ± 0.00076	1.44849 ± 0.00078	1.45427 ± 0.00076	1.46085 ± 0.00074	1.46776 ± 0.00074	1.47491 ± 0.00075
298.15 K, Wavelength=436.1 nm	1.43491 ± 0.00073	1.44124 ± 0.00074	1.44775 ± 0.00074	1.45454 ± 0.00075	1.46153 ± 0.00075	1.46903 ± 0.00075	1.47676 ± 0.00076	1.48462 ± 0.00077	1.49284 ± 0.00079
298.15 K, Wavelength=513.9 nm	1.42851 ± 0.00072	1.43425 ± 0.00073	1.44037 ± 0.00073	1.44665 ± 0.00074	1.45312 ± 0.00075	1.46005 ± 0.00075	1.46722 ± 0.00075	1.4745 ± 0.00076	1.48229 ± 0.00077
298.15 K, Wavelength=589.3 nm	1.4249 ± 0.00072	1.43032 ± 0.00073	1.43623 ± 0.00072	1.44221 ± 0.00073	1.44841 ± 0.00074	1.45504 ± 0.00074	1.46188 ± 0.00074	1.46882 ± 0.00075	1.47611 ± 0.00076
298.15 K, Wavelength=633.2 nm	1.42337 ± 0.00072	1.42885 ± 0.00072	1.43449 ± 0.00072	1.44035 ± 0.00073	1.44642 ± 0.00073	1.45293 ± 0.00073	1.45965 ± 0.00074	1.46646 ± 0.00074	1.47371 ± 0.00075
298.15 K, Wavelength=657.2 nm	1.42267 ± 0.00075	1.42867 ± 0.00073	1.43417 ± 0.00072	1.44009 ± 0.00073	1.44578 ± 0.00075	1.45198 ± 0.00073	1.45863 ± 0.00073	1.46548 ± 0.00074	1.47249 ± 0.00075
303.15 K, Wavelength=436.1 nm	1.43262 ± 0.00073	1.43872 ± 0.00074	1.44552 ± 0.00075	1.45204 ± 0.00075	1.45929 ± 0.00075	1.4666 ± 0.00076	1.47424 ± 0.00076	1.48209 ± 0.00077	1.49024 ± 0.00077
303.15 K, Wavelength=513.9 nm	1.42624 ± 0.00073	1.43187 ± 0.00073	1.43818 ± 0.00074	1.44421 ± 0.00074	1.45077 ± 0.00074	1.45769 ± 0.00074	1.46477 ± 0.00075	1.47203 ± 0.00076	1.47981 ± 0.00076
303.15 K, Wavelength=589.3 nm	1.42267 ± 0.00072	1.42804 ± 0.00073	1.43406 ± 0.00074	1.43981 ± 0.00073	1.44611 ± 0.00074	1.45269 ± 0.00074	1.45946 ± 0.00075	1.46639 ± 0.00075	1.47362 ± 0.00075
303.15 K, Wavelength=633.2 nm	1.42115 ± 0.00072	1.42643 ± 0.00072	1.43232 ± 0.00074	1.43796 ± 0.00073	1.44427 ± 0.00073	1.45059 ± 0.00073	1.45721 ± 0.00074	1.46405 ± 0.00074	1.47135 ± 0.00076
303.15 K, Wavelength=657.2 nm	1.42052 ± 0.00072	1.42618 ± 0.00074	1.4321 ± 0.00071	1.43801 ± 0.00073	1.44358 ± 0.00073	1.44965 ± 0.00075	1.45625 ± 0.00074	1.46299 ± 0.00075	1.47001 ± 0.00075
308.15 K, Wavelength=436.1 nm	1.43035 ± 0.00073	1.43663 ± 0.00074	1.44293 ± 0.00076	1.44977 ± 0.00075	1.45671 ± 0.00075	1.46416 ± 0.00076	1.47181 ± 0.00076	1.47955 ± 0.00077	1.48775 ± 0.00078
308.15 K, Wavelength=513.9 nm	1.42401 ± 0.00072	1.42966 ± 0.00073	1.43562 ± 0.00075	1.44199 ± 0.00074	1.44841 ± 0.00074	1.45531 ± 0.00075	1.46239 ± 0.00075	1.46958 ± 0.00076	1.47731 ± 0.00075
308.15 K, Wavelength=589.3 nm	1.42043 ± 0.00072	1.42581 ± 0.00073	1.43152 ± 0.00074	1.43762 ± 0.00073	1.44375 ± 0.00073	1.45034 ± 0.00074	1.45708 ± 0.00074	1.46398 ± 0.00075	1.47126 ± 0.00075
308.15 K, Wavelength=633.2 nm	1.41894 ± 0.00072	1.42433 ± 0.00072	1.42979 ± 0.00074	1.4358 ± 0.00073	1.44178 ± 0.00073	1.44827 ± 0.00074	1.45488 ± 0.00074	1.46165 ± 0.00074	1.46871 ± 0.00075
308.15 K, Wavelength=657.2 nm	1.41824 ± 0.00072	1.42395 ± 0.00074	1.42984 ± 0.00072	1.43554 ± 0.00075	1.44115 ± 0.00074	1.44715 ± 0.00074	1.45387 ± 0.00073	1.46065 ± 0.00074	1.46758 ± 0.00075
313.15 K, Wavelength=436.1 nm	1.42808 ± 0.00073	1.43404 ± 0.00073	1.44059 ± 0.00076	1.4473 ± 0.00075	1.45448 ± 0.00076	1.46172 ± 0.00076	1.46924 ± 0.00077	1.47706 ± 0.00077	1.48511 ± 0.00078
313.15 K, Wavelength=513.9 nm	1.42179 ± 0.00072	1.42725 ± 0.00073	1.43332 ± 0.00074	1.43955 ± 0.00074	1.44611 ± 0.00073	1.45293 ± 0.00075	1.4599 ± 0.00076	1.46712 ± 0.00076	1.47502 ± 0.00075
313.15 K, Wavelength=589.3 nm	1.41826 ± 0.00072	1.42345 ± 0.00073	1.42938 ± 0.00075	1.4352 ± 0.00073	1.44159 ± 0.00074	1.44797 ± 0.00074	1.45466 ± 0.00075	1.46154 ± 0.00075	1.46878 ± 0.00077
313.15 K, Wavelength=633.2 nm	1.41677 ± 0.00072	1.42191 ± 0.00072	1.42752 ± 0.00074	1.43336 ± 0.00073	1.43965 ± 0.00074	1.4459 ± 0.00074	1.45247 ± 0.00074	1.45924 ± 0.00075	1.46652 ± 0.00076
313.15 K, Wavelength=657.2 nm	1.41612 ± 0.00072	1.42149 ± 0.0007	1.42761 ± 0.0007	1.43304 ± 0.00073	1.43882 ± 0.00072	1.44496 ± 0.00074	1.45159 ± 0.00073	1.45817 ± 0.00074	1.46515 ± 0.00075
318.15 K, Wavelength=436.1 nm	1.42579 ± 0.00073	1.43204 ± 0.00071	1.43791 ± 0.00073	1.44498 ± 0.00075	1.4518 ± 0.00076	1.45921 ± 0.00076	1.46673 ± 0.00075	1.47452 ± 0.00076	1.48247 ± 0.00078
318.15 K, Wavelength=513.9 nm	1.41953 ± 0.00064	1.42512 ± 0.00065	1.43094 ± 0.00067	1.43729 ± 0.00065	1.44389 ± 0.00066	1.45049 ± 0.00066	1.45744 ± 0.00066	1.46465 ± 0.00065	1.47245 ± 0.00064
318.15 K, Wavelength=589.3 nm	1.41596 ± 0.0007	1.42122 ± 0.00069	1.42669 ± 0.00073	1.43297 ± 0.00071	1.43898 ± 0.00073	1.44556 ± 0.00072	1.45224 ± 0.00072	1.4591 ± 0.00072	1.46615 ± 0.00071
318.15 K, Wavelength=633.2 nm	1.41454 ± 0.00072	1.41993 ± 0.00068	1.425 ± 0.00068	1.43114 ± 0.0007	1.4371 ± 0.00073	1.44352 ± 0.00074	1.45008 ± 0.00072	1.45679 ± 0.00073	1.46372 ± 0.00078
318.15 K, Wavelength=657.2 nm	1.41386 ± 0.00072	1.41979 ± 0.00066	1.42574 ± 0.00071	1.43091 ± 0.00069	1.43665 ± 0.00071	1.44244 ± 0.00071	1.44935 ± 0.00073	1.45594 ± 0.00072	1.46262 ± 0.00076
